Test results published in US20080038374A1, “New Use” (Lipopeptide AB, priority 2004, published 2008).
Where “and” joins values, the source holds several entries; their conditions need not be identical. Equal values may be shown once.

Tests used:
hCAP18 [1] = assay: Expression of hCAP18 mRNA in human primary keratinocytes by Real-Time PCR; format: cell-based
Method: Human neonatal epidermal keratinocytes were obtained from Cascade Biologics, Inc. (Lot # 1C1145; Port-land, OR) and cultured in EpiLife serum-free keratinocyte growth medium (Cascade Biologics, Inc.) containing growth supplements and a calcium concentration of 0.06 mM. Cells at passage 3 were allowed to grow for three days to approximately 60% confluence. For calcium switch experiments, 1.5 mM CaCl2 (added from a 1 M stock solution) was added to the plates and after 48 hours the cells were regarded as differentiated (observed as an induction of mRNA expression of the two keratinocyte markers transglutaminase and cellular retinoic acid-binding protein II). The compounds assayed were 25-hydroxy-cholecalciferol (25-OH-D3), 1,25-dihydroxycholecalciferol (1,25-(OH)2-D3), and calcipotriol/MC 903 (Leo Pharmaceutical, Denmark). Their effect on hCAP18 expression was monitored by quantitivate PCR analysis.
Keratinocytes were grown as above and treated with said compounds for 4 h. RNA was extracted with the RNeasy kit (Qiagen) and reverse transcribed with a first strand synthesis kit (Amersham-Pharmacia). RNA was quantified by Real-Time PCR on an ABI Prism 7700 (Applied Biosystems) using 5 ng of cDNA according to standard protocols. The samples were evaluated in triplicates. Sequences were 5′-[…]-3′ and 5′-[…]-3′ for the primers, and 5′-[…]-3′ for the fluorigenic probe. The samples were normalized by quantification of 18S-RNA (Assay on Demand, Applied Biosystems).
To assess the specificity of the vitamin D regulation on the hCAP18 gene, the vitamin D3 precursor 7-dehydrocholesterol (7-DHC) was assayed at a concentration of 1 μM as in Example 1. 7-DHC had no effect on hCAP18 expression. […] Assays were performed and measured as above. The effect of 1,25-(OH)2-D3 is shown for comparison.

dermatitis = conditions: topical, 0.03-1.0 μg/g of composition; type of dermatitis not stated; cited from earlier work
hCAP18 promoter = assay: Stimulation of the hCAP18 promoter at different concentrations (FIG. 4); format: cell-based, human; conditions: tested at 1, 10, 100 and 1000 nM
Method: To assess whether physiological levels were sufficient to induce the stimulation of the hCAP18 promoter, the study was performed at the different concentrations 1, 10, 100 and 1000 nM of 1,25-(OH)2-D3 and 25-OH-D3 (FIG. 4). […] The physiologic serum concentration of 25-OH-vitamin D3 is between 20 nM and 125 nM, whereas the 1,25-(OH)2-D3 is present in pM concentration. A dosage form of a vitamin D compound for topical administration includes for instance about 1-100, preferably 5-50 μg vitamin D compound per gram composition.

hCAP18 [2] = conditions: keratinocytes and leukocytes in vitro; cited from earlier work
hCAP18 [3] = assay: hCAP18/LL-37 expression in skin of healthy volunteers after topical application; format: in vivo, human; conditions: 0.002% solution topical, 4 days, three healthy volunteers
Method: To assay whether 1,25-(OH)2-D3 stimulated hCAP18 expression in vivo, we applied 1,25-(OH)2D3 to the skin of three healthy individuals.
A stock solution of 4 mM 1,25-dihydroxyvitamin D3 in isopropanol was diluted in ethanol:propylene glycol [70:30] to a final vitamin D concentration of 0.002%. The vehicle containing ethanol 96% and propylene glycol [70:30] with 0.5 mg/ml BHT (butylated hydroxy toluene) served as control. In a room with dim light, the vitamin D and the control were locally applied to the skin (the right and left upper arm respectively) of three healthy volunteers. The test area of 2×2.5 cm on each arm was cleaned with saline solution (NaCl 0.9) before application. Evaporation time for the solutions of vitamin D and the vehicle varied between 8 and 15 minutes. The tested area was then covered with plastic film and band-aid (Gladpack, Melolin and Mefix). After 4 days the band-aid and the plastic film was removed and the test area was rapidly cleaned with 40% ethanol. Punch biopsies (4 mm) were obtained from the test area (after infiltration anesthesia with 2-3 ml Xylocaln with epinefrin) and were frozen instantly. […] Protein concentrations were measured by Protein Assay Kit (Bio-Rad Laboratories, Hercules Calif.) based on the Bradford method (Bradford, 1976) and samples were diluted to a final protein concentration of 1 mg per ml. […]

hCAP18 [4] = assay: hCAP18 mRNA in skin of atopic dermatitis patients, Real-Time PCR; format: in vivo, human; set-up: hCAP18 mRNA, Non-lesional skin, Treated / hCAP18 mRNA, Lesional skin, Treated: unit not given here; conditions: 0.002% topical, 4 days, one patient per row
Method: To assay whether 1,25-(OH)2-D3 stimulated hCAP18 expression in atopic dermatitis, we applied 1,25-(OH)2-D3 on the skin of four individuals, two females and two men, with active atopic dermatitis. The patients had suffered from the eczema for 11-30 years. The diagnosis was made by a dermatologist. A stock solution of 4 mM 1,25-(OH)2-D3 in isopropanol was diluted in ethanol:propylene glycol (70:30) to a final concentration of 0.002%. To prevent deactivation of 1,25-(OH)2-D3, the procedure was performed in a room with dim light. The 1,25-(OH)2-D3 were locally applied on lesional and non-lesional skin area of patients. The skin surface was cleaned with saline solution (NaCl 0.9) before application. The treated skin area was measured to 2×2.25 cm. Evaporation time for the solutions of 1,25-(OH)2-D3 varied between 8 and 15 minutes. The skin area was then covered with plastic film and band-aid (Quickpack: Haushalt und Hygiene GmbH, Renningen, Germany; Melolin: Smith and Nephew, Hull, UK; Mefix: Molnlycke A B, Gothenburg, Sweden). After 4 days the band-aid and the plastic film were removed and the skin areas were rapidly cleaned with 40% ethanol. Punch biopsies (4 mm) were obtained from the treated skin areas (after infiltration anesthesia with 2-3 ml Xylocaln with epinephrin) and frozen instantly. On the first day, control biopsies were also obtained from non-treated lesional and non-lesional skin and the tissues were snap-frozen as described. RNA was extracted and hCAP18 mRNA expression determined by Real-Time PCR as described above in Example 1.

acute wounds = conditions: Wistar rats, intraperitonial; cited from earlier work
angiogenesis = conditions: cited from earlier work

## C=C1/C(=C\C=C2/CCC[C@]3(C)[C@@H]([C@H](C)/C=C/[C@H](C)C(C)(C)O)CC[C@@H]23)C[C@@H](O)C[C@@H]1O [1,25-(OH)2-D2, 1,25-dihydroxyergocalciferol]
hCAP18 [1]; concentration not given
  activity on hCAP18 expression compared with 1,25-(OH)2-D3: activity comparable to 1,25-(OH)-D3

## C=C1/C(=C\C=C2/CCC[C@]3(C)[C@@H]([C@H](C)CCCC(C)(C)O)CC[C@@H]23)C[C@@H](O)C[C@@H]1O [1,25-(OH)2-D3, 1,25-dihydroxy-cholecalciferol]
dermatitis
  effect on dermatitis: marked effect
hCAP18 promoter
  level down to which a substantial portion of stimulation remained: 10 nM
hCAP18 [2]
  expression of hCAP18: directly induces
hCAP18 [3]
  expression of hCAP18 and production of LL-37 in human skin in vivo: Up-Regulates
hCAP18 [4]; lesional skin
  Increase (treated/untreated), Lesional skin: 5638% and 79756% and 977% and 220%
  hCAP18 mRNA, Lesional skin, Treated: 1093 and 539 and 64 and 29
hCAP18 [4]; non-lesional skin
  Increase (treated/untreated), Non-lesional skin: 13104% and 520% and 841% and 459%
  hCAP18 mRNA, Non-lesional skin, Treated: 739.4 and 24.8 and 24.2 and 8.1

## C=C1/C(=C\C=C2/CCC[C@]3(C)[C@@H]([C@H](C)CCCC(C)C)CC[C@@H]23)C[C@@H](O)C[C@@H]1O [1α-OH-cholecalciferol, 1-alpha-hydroxycholecalciferol]
dermatitis
  effect on dermatitis: marked effect

## CC(C)CCC[C@@H](C)[C@H]1CC[C@H]2C3=CC=C4C[C@@H](O)CC[C@]4(C)[C@H]3CC[C@]12C [7-DHC, 7-dehydrocholesterol]
hCAP18 [1]; 1 μM, as in Example 1
  effect on hCAP18 expression: no effect

## C=C1CC[C@H](O)C/C1=C/C=C1\CCC[C@]2(C)[C@@H]([C@H](C)CC[C@@H](O)C(C)(C)O)CC[C@@H]12 [24,25-dihydroxycholecalciferol]
dermatitis
  effect on dermatitis: no effect

## C=C1CC[C@H](O)C/C1=C/C=C1\CCC[C@]2(C)[C@@H]([C@H](C)CCCC(C)(C)O)CC[C@@H]12 [25-OH-D3, 25-hydroxy-cholecalciferol]
hCAP18 promoter
  level down to which a substantial portion of stimulation remained: 10 nM

## [Ca+2].[Cl-].[Cl-] [calcium, CaCl2]
hCAP18 [1]; 1.5 mM CaCl2, 48 hours, keratinocytes
  increase of hCAP18 expression by induction of differentiation: about 1.5 fold

## C=C1CC[C@H](O)C/C1=C/C=C1\CCC[C@]2(C)[C@@H]([C@H](C)CCCC(C)C)CC[C@@H]12 [cholecalciferol]
dermatitis
  effect on dermatitis: no effect
Acute wounds
  re-epithelization of acute wounds: accelerates
  wound breaking strength: increases

## C=C1CC[C@H](O)C/C1=C/C=C1\CCC[C@]2(C)[C@@H]([C@H](C)/C=C/[C@H](C)C(C)C)CC[C@@H]12 [ergocalciferol]
dermatitis
  effect on dermatitis: no effect

## LL-37/hCAP18: endogenous 37 amino acid antimicrobial peptide released by proteolytic cleavage of hCAP18 (LLGDFFRKSKEKIGKEFKRIVQRIKDFLRNLVPRTES; Antibacterial peptide LL-37; UniProt P49913 134-170, looked up)
angiogenesis
  angiogenesis: induces functionally important angiogenesis
